Assay results: US8642656B2, “Calixarene-based peptide conformation mimetics, methods of use, and methods of making” (priority 2004, dated 2014)
Entries after “also recorded” stand apart in the source; their conditions may differ. Like-named read-outs stand apart in the source and are kept apart here.

Columns and labels:
[1] = system: HUVEC; experiment: EC migration, wound healing assay; type: cell-based, human; conditions: 25 μM
Procedure: EC migration was measured in the wound healing assay. HUVEC were cultured in triplicate on a 1-mg/ml fibronectin coat in a 24-well tissue culture plate. Cells were grown for 3 days until confluence. When confluent, a wound was made in the well, using a blunt glass pipette. The medium was replaced with medium containing 10 ng/ml bFGF with or without 25 μM compound and at 0, 2, 4, 6, and 8 hours, the wound width was measured at four different predefined places. Photographs were made using an inverted microscope and a Contax 167 MT 35 mm camera.

[2] = system: LPS from S. typhimurium; experiment: LPS neutralization assay (Limulus amoebocyte lysate, QCL-1000); type: biochemical, Salmonella typhimurium; conditions: read-out: IC50 values (μM) for LPS binding, Salmonella
How it was run: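 Chromogenic LAL assay; LPS at 0.04 units (0.01 ng for P. aeruginosa and E. coli 0111:B4, 0.03 ng for S. typhimurium and S. marcascens). pNA release read at 405-410 nm. IC50 by sigmoidal dose-response fit.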

[3] = system: endothelial cell (EC); experiment: EC Proliferation Assay, [3H]thymidine incorporation (Example 36, Table 1); type: cell-based; conditions: Table 1 and FIG. 3
Procedure: Human umbilical vein derived EC(HUVEC) were harvested from normal human umbilical cords by perfusion with 0.125% trypsin/EDTA as described in Groenewegen et al., J. Exp. Med. 164, 131-143 (1986). For determination of quiescent EC phenotype isolated ECs were immediately fixed in 1% paraformaldehyde. Human microvascular ECs (MVECs) were isolated. ECs were cultured in fibronectin coated tissue culture flasks in culture medium (RPMJ-1640 with 20% human serum (HS), supplemented with 2 mM glutamine and 100 U/ml penicillin and 0.1 mg/ml streptomycin).
EC proliferation was measured using a [^3H]thymidine incorporation assay. ECs were seeded at 5000 cells/well in flatbottomed tissue culture plates and grown for 3 days, in the absence or presence of regulators, in culture medium. During the last 6 hours of the assay, the culture was pulsed with 0.5μ Ci [methyl-^3H]thymidine/well.

Compound	effect on EC migration, wound assay (in words) [1]	IC50 ([2]; Table 3, errors estimated ±30%)	antiangiogenic activity (in words) ([3]; trifluoroacetic acid salt)	IC50 ([2]; Table 2)	antiangiogenic activity (in words) [3]	antiangiogenic activity (in words) ([3]; listed as KM0118 (40))
5,11,17,23-Tetra-tert-butyl-25,27-bis(2-guanidinoethoxy)-26,28-dihydroxy calix[4]arene trifluoroacetic acid salt [Compound 27]	as effective as βpep-25 and more effective than 40	4.4 µM	excellent antiangiogenic activity; also recorded: exceptional antiangiogenic activity			
CN(C)CCNC(=O)COc1c2cccc1Cc1cccc(c1OCC(=O)NCCN(C)C)Cc1cccc(c1OCC(=O)NCCN(C)C)Cc1cccc(c1OCC(=O)NCCN(C)C)C2 [Compound 40]		> 5 µM		> 5 µM	exceptional antiangiogenic activity	excellent antiangiogenic activity
